# According to patent US20090065745A1, “ANTI-DEGRADATION AGENT” (priority 2005, published 2009):
# Assay: Measurement of dynamic hydration number (relaxation time T1)
# Assay type: physicochemical
# Settings: at 25° C., in water
# Excerpt: First, the concept of the “dynamic hydration number” used in the present invention is explained. It is considered that the initial reaction of deterioration is caused at an “interface”, i.e., any of interfaces between gas and liquid, between liquid and solid and between liquid and liquid. In the case of almost all of foods, it is considered that the initial reaction of deterioration thereof is caused at an interface between oil and water. Here, if consideration is mainly made on the case where a configuration of the food is an aqueous system, water is generally classified into two types, i.e., liberated water and combined water. It is considered that among these waters, the liberated water frequently constitutes a factor relating to the initial reaction of deterioration.
# The control of the liberated water can be realized by constraining a free motion of water molecules. The “dynamic hydration number” of the compound is an index showing a degree of constraint of free motion of water when the compound is dissolved in water. […] The dynamic hydration number of the compound may be readily measured, for example, by the following method.
# 25.0 mg of p-hydroxybenzoic acid was dissolved in pure water, and pure water was further added the resultant solution to obtain 50 mL of a solution (blank). The blank was added to samples used in amounts of 1.008 g and 1.512 g, respectively, to prepare sample solutions 1 and 2 having total weights of 4.013 g and 3.001 g, respectively. Using a spectrophotometer “Inova 500” manufactured by Varian Corp., the relaxation time (T1) of the respective sample solutions was measured at 25° C. to determine a dynamic hydration number thereof.
row,Molecule,Dynamic hydration number (nDHN)
1,O=C(CO)[C@@H](O)[C@H](O)[C@H](O)CO [Fructose],16.5
2,NCCCC[C@H](N)C(=O)O [Lysine],3.0
3,Maltotriol,211
4,Maltotriose,204

# Results, then the molecule that gave them:
row,Dynamic hydration number (nDHN),Molecule
1,15.0,OC[C@H]1O[C@@](CO)(O[C@H]2O[C@H](CO)[C@@H](O)[C@H](O)[C@H]2O)[C@@H](O)[C@@H]1O [Sucrose]
2,21.0,CC(C)[C@H](N)C(=O)O [Valine]
3,15.5,O=C[C@H](O)[C@@H](O)[C@H](O)CO [Xylose]

# Assay: Solubility in hexane (oil solubility)
# Assay type: physicochemical
# Settings: at 30° C.
# Excerpt: However, the solubility in triglyceride of the compound varies depending upon constitutional fatty acids of the triglyceride. Therefore, in the present invention, the oil insolubility and oil solubility of the compound is defined by a solubility thereof in hexane.
Solubility in hexane,Molecule,Oil solubility class (solubility in hexane)
>500 mg/mL,tocopherol [Vitamin E (tocopherol)],Oil-soluble (oil-soluble antioxidant having a solubility in 1 L of hexane of not less than 50 g as measured at 30° C.)
